According to patent US20260207777A1, “IMPROVED PEPTIDE INHIBITORS OF P53 BINDING PROTEIN 53BP1” (KAMAU THERAPEUTICS, INC., priority 2022, published 2026):

Legend:
CD34+ HSPCs [1] = assay: editing of CD34+ HSPCs with purified i53 variant proteins and HBB-UBC-GFP AAV donor; flow cytometry; assay type: cell-based, human; conditions: for increase in levels of GFP integration over control edited cells: HBB-UBC-GFP AAV MOI 2500
Method: (§1) Chemically-modified single guide RNAs (sgRNAs) used to edit CD34+ HSPCs at the HBB locus were purchased from Synthego. The sgRNA sequences were modified by adding 2′-O-methyl-3′-phosphorothioate at the three terminal nucleotides of the 5′ and 3′ ends. The target sequence for the HBB sgRNA is as follows: HBB: 5′[…]-3′ (SEQ ID NO: 74). Cas9 protein (SpyFi Cas9) was purchased from Aldevron. The RNPs were complexed at a Cas9:sgRNA molar ratio of 1:2.5 at 25° C. for 10-15 min prior to electroporation. Cells were collected, counted, and pelleted at 180 g×7 min. The cell pellets were resuspended in Maxcyte buffer with complexed RNPs and electroporated using a Maxcyte EXPERT ATx Nucleofector. After electroporation cells were plated at 3.5×10^5 cells/mL in media supplemented with cytokines and the desired AAV donor added at 5.0×10^2-2.5×10^4 vector genomes/cell. 24 h after nucleofection, cells were spun down, washed once with media, and seeded into AAV-free media at a density of 3.5×10^5 cells/mL.
(§2) CD34+ HPSCs were edited with protein variants 3 days post thaw and were harvested 2 days post nucleofection for NGS analysis or 3-5 days post nucleofection for GFP expression analysis. Editing reactions with proteins at a given concentration were repeated in duplicate or triplicate (either using the same CD34+ HSPC donor or across multiple donors).
Rates of targeted integration of the HBB UBC GFP donor were measured using a Beckman Coulter CytoFLEX. DAPI (Miltenyi Biotec) was used to discriminate live and dead cells. Flow cytometry data were analyzed using FlowJo 10 software.

[2] = test system: HDR-mediated integration of a donor sequence; assay: i53 as protein-based additive, enhancement of HDR-mediated integration of a donor sequence (data not shown); assay type: cell-based; conditions: 1.5 mg/mL purified i53 in nucleofection solution, relatively inconsistent results
CD34+ HSPCs [3] = assay: editing of CD34+ HSPCs with purified i53 variant proteins and HBB-SNP AAV donor; NGS of editing outcomes; assay type: cell-based, human; conditions: for increase in levels of HDR corrected alleles over control edited cells: FIG. 13; for increase in levels of HDR corrected alleles over DM: L67R/L67H value is the average of both
Method: as §1, §2
24 h after nucleofection, cells were spun down, washed with media, and seeded into AAV and DNAPKi-free media at a density of 3.5×10^5 cells/mL.
The frequency of homology directed repair (HDR) and other editing outcomes at HBB were measured using Next Generation Sequencing (NGS). An NGS assay was developed to determine the frequency of at the HBB locus by quantifying the total number of alleles that have been either: (1) not edited (% WT), (2) changed by HDR to incorporate sequence differences present in the AAV repair template (% HR), or (3) mutated during the genome correction process resulting in a gene that produces mutant β-globin (% INDELs).
For this assay, genomic DNA was harvested from cells using a Quick-DNA 96 Plus Kit (Zymo Research). The DNA concentration was measured using a Qubit 1×dsDNA BR assay kit (ThermoFisher). Purified genomic DNA was then used to amplify the HBB locus via polymerase chain reaction (PCR). The PCR products were diluted using nuclease-free water to serve as the template DNA for targeted NGS library prep. A second PCR with primers carrying partial Illumina adapters was performed to amplify a 142 base pair sequence that includes the region of the HBB locus that is to be corrected during the genome correction process. The PCR products were diluted again to serve as templates in a third PCR reaction using Nextera XT index primers. This third PCR reaction was used to assign unique identifiers to each sample and to add the full length adapter sequences necessary for Illumina sequencing. The size of the PCR products was assessed on an Agilent BioAnalyzer. PCR products were then pooled, purified using a Qiagen PCR purification kit, and quantified using PicoGreen in order to ready the PCR products for sequencing.
Based on the PicoGreen concentration, the library of pooled PCR products was diluted to a final concentration of 4 nM. Sequencing was performed on a MiSeq system using an Illumina MiSeq sequencing reagent kit (V2, 300 cycles). A 10% PhiX control library was added to the sample library to improve sequence diversity and to allow for error rate measurements. The library was denatured and loaded at […] onto the sequencing reagent cartridge. The sequencing entails paired-end 150 base pair reads and dual indexing reads. The sequencing data was demultiplexed based on the sample indexes provided and FASTQ files for each sample are generated.
The FASTQ files were processed using the CRISPResso2 pipeline^3. The data was reported as % WT, % corrected by HR, and % INDELs. […]

53BP1 Tudor domain = 53BP1 Tudor domain (Homo sapiens, UniProt Q12888); conditions: previously reported; mutants relative to i53; cited from earlier work
Chain of 53BP1 Tudor domain (Q12888 1484-1603 limits assumed): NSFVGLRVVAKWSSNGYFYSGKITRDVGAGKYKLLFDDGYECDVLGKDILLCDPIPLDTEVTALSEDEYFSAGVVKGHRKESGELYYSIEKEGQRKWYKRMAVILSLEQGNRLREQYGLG

53BP1 = 53BP1 (Homo sapiens, UniProt Q12888); conditions: transiently expressed in cells; cited from earlier work
Chain of 53BP1 (Q12888 whole entry): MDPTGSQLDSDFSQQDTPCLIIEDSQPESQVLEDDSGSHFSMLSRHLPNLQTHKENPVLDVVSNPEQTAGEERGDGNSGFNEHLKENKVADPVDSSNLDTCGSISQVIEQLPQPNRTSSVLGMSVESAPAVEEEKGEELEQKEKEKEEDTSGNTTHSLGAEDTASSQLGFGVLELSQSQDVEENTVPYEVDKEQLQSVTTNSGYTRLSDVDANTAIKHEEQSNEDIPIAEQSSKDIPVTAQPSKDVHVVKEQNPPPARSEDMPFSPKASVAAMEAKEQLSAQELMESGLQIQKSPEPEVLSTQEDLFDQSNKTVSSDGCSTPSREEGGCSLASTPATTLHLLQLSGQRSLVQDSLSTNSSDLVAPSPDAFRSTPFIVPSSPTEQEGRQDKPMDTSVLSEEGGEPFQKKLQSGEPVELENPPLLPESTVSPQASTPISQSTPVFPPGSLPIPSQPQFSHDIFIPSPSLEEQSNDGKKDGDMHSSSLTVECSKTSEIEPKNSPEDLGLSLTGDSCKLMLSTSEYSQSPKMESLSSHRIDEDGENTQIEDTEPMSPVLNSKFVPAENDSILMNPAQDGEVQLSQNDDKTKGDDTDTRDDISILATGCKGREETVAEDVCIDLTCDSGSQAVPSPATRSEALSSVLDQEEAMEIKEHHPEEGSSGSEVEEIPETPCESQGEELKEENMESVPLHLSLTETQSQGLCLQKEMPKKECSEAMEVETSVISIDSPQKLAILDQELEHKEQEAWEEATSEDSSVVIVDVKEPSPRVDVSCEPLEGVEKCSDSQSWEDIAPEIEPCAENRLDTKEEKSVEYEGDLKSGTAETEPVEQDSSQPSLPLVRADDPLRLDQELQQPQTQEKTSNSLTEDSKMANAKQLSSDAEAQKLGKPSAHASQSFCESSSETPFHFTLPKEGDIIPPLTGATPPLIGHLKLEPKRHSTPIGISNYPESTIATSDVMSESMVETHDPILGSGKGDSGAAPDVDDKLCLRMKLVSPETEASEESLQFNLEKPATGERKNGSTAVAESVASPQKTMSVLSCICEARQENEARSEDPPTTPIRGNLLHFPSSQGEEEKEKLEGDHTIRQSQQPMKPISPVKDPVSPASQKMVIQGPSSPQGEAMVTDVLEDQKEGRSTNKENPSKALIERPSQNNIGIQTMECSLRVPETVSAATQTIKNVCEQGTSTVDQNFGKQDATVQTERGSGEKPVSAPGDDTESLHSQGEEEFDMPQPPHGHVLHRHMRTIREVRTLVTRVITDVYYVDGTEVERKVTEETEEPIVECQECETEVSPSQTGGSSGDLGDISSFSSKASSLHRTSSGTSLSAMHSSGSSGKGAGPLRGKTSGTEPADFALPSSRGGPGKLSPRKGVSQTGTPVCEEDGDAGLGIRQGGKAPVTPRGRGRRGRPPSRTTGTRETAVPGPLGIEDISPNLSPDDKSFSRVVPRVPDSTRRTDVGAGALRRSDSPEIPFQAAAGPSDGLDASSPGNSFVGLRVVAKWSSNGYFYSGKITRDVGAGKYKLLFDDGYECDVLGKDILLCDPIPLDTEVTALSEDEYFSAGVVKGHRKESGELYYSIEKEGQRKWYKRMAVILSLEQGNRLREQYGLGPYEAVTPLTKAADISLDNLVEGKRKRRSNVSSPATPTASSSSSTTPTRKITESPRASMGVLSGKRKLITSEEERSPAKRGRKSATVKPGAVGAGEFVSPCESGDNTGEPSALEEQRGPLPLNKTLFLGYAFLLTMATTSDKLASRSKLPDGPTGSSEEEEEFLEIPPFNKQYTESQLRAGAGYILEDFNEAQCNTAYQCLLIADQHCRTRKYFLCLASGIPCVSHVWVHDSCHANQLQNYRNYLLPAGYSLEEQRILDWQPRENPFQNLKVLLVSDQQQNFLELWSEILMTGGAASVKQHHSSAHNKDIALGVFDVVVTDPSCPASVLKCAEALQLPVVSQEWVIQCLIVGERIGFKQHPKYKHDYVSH

CD34+ HSPCs [4] = assay: editing at the off-target editing site OT-1 (NGS-based analysis); assay type: cell-based, human; conditions: protein 0.8 mg/mL
Text: Editing outcomes at the off-target (OT) editing site OT-1 can be assessed using an assay very similar to the one described above for measuring the targeted integration of HBB-SNP. The off-target editing site was identified via three different methods (in silico prediction,^13 Circle-Seq,^14 and Guide-Seq^15) and was confirmed to be off-target editing site of significance via amplicon sequencing. The workflow for the OT-1 amplicon sequencing assay is very similar to the on-target sequencing assay but involves one less PCR step. A small 166 base pair sequence encompassing the OT-1 editing site is amplified directly from genomic DNA in the first PCR and then tagged with barcode and adapter sequences in a second PCR. The resulting PCR products are sized, quantified, and prepared for sequencing in the same manner as for the HBB on-target sequencing assay. The sequencing data is also processed using the Crispresso2 pipeline,^3 but in contrast to the on-target sequencing assay no homology direct repair outcomes are present at OT-1, only % WT and % INDELs are reported.

Substance: i53: engineered ubiquitin variant, known inhibitor of 53BP1, selectively binds the Tudor domain of 53BP1 [reference compound]
- increase of % HDR over DM (CD34+ HSPCs [1]; HBB-UBC-GFP AAV MOI 1250, protein 0.4 mg/mL, GFP integration in live cells, L67R/L67H value is the average of both): 19%
- increase in levels of GFP integration over control edited cells (CD34+ HSPCs [1]; protein 0.1 mg/mL): 5%
- increase in levels of GFP integration over control edited cells (CD34+ HSPCs [1]; protein 0.2 mg/mL): 18%
- increase in levels of GFP integration over control edited cells (CD34+ HSPCs [1]; protein 0.4 mg/mL): 29%
- increase in levels of GFP integration over control edited cells (CD34+ HSPCs [1]; protein 0.8 mg/mL): 45%
- increases in HDR-mediated integration of a donor sequence [2]: 10-20%
- increase in levels of HDR corrected alleles over control edited cells (CD34+ HSPCs [3]; MOI 312.5, protein 0.1 mg/mL): 18%
- increase in levels of HDR corrected alleles over control edited cells (CD34+ HSPCs [3]; MOI 312.5, protein 0.2 mg/mL): 24%
- increase in levels of HDR corrected alleles over control edited cells (CD34+ HSPCs [3]; MOI 312.5, protein 0.4 mg/mL): 45%
- increase in levels of HDR corrected alleles over control edited cells (CD34+ HSPCs [3]; MOI 2500, protein 0.1 mg/mL): 3%
- increase in levels of HDR corrected alleles over control edited cells (CD34+ HSPCs [3]; MOI 2500, protein 0.2 mg/mL): 5%
- increase in levels of HDR corrected alleles over control edited cells (CD34+ HSPCs [3]; MOI 2500, protein 0.4 mg/mL): 18%
- levels of HDR corrected alleles (normalized by total edited alleles), dose response (CD34+ HSPCs [3]; FIG. 26, protein 0.2, 0.4 and 0.8 mg/mL, MOIs 312.5 and 2500): decrease significantly as the protein concentrations decreased
- increase in levels of HDR corrected alleles over DM (CD34+ HSPCs [3]; HBB-SNP AAV MOI 312.5, protein 0.4 mg/mL): 14%
- increase in levels of HDR corrected alleles over DM (CD34+ HSPCs [3]; HBB-SNP AAV MOI 2500, protein 0.4 mg/mL): 15%
- binding to the 53BP1 Tudor domain (53BP1 Tudor domain): selectively bind
- recruitment of 53BP1 to DSBs (53BP1): block recruitment of 53BP1 to DSBs
- frequency of INDELS at the off-target editing site OT-1 (CD34+ HSPCs [4]): not significantly increase
